Data set [1] can be described thus: Cytotoxicity test, CellTiter-Glo luminescent cell viability assay. The conditions noted are these: dog, MDCK cells. In general terms: In ATP-based viability assays light output follows the ATP content of the culture.
Data set [2] has as its system influenza virus. On the set-up: method as in PMID 28792469. Particulars: 50 µg/mL; cited from earlier work.
The subject of data set [3] is MDCK cells. Particulars: read-out: CC50 (cytotoxicity concentration for 50% cell death); cited from earlier work.
In data set [4] the test system is A/PR/8/34 virus. On the set-up: method as in PMID 26157551. The conditions noted are these: 10 μM; cited from earlier work.
Data set [5] relates to influenza virus. On the set-up: method as in doi:10.1134/S1068162018050059. Particulars: read-out: EC50, anti-influenza activity; cited from earlier work.
In data set [6] the test system is avian influenza KBNP-0028 (H9N2) virus. Particulars: read-out: EC50 against avian influenza KBNP-0028 (H9N2) virus; cited from earlier work.
A short description of data set [7]: in vitro. Particulars: dog.
Data set [8] deals with influenza A/WSN/33 (H1N1) virus. Briefly: microbe, parasite or virus in culture. Particulars: for IC50: read-out: IC50 (half maximal inhibitory concentration); for inhibition rate against influenza virus A/WSN/33 (H1N1): CPE-based screening at 20 μM. The data set is classed as cell-based.
Data set [9] concerns MDCK cells. Kind of data set: Cytotoxicity test, CellTiter-Glo luminescent cell viability assay. The conditions noted are these: for CC50: read-out: CC50 (cytotoxicity concentration for 50% cell death), MDCK cells; for MDCK cell viability: 100 µM, 36 h, CellTiter-Glo.

Data on twelve molecules can be found in publication PMC8880671, “Facial Synthesis and Bioevaluation of Well-Defined OEGylated Betulinic Acid-Cyclodextrin Conjugates for Inhibition of Influenza Infection” (Molecules, 2022).

Where two headings read alike, the source gives them in different places.

In the case of `C=C(C)[C@@H]1CC[C@]2(C(=O)O)CC[C@]3(C)[C@H](CC[C@@H]4[C@@]5(C)CC[C@H](O)C(C)(C)[C@@H]5CC[C@]43C)[C@@H]12` [BA, Betulinic acid], the viability (commonly the share of living cells, or the viability signal relative to a control) at 36 h, 100 µM in [1] is 8.5%. Besides, in data set [2], the “anti-influenza activity (inhibition)” value was 27.6%. Moreover, in data set [3], the CC50 is 31.9 µM. Also, in [4], the “anti-influenza activity against A/PR/8/34 virus” value is on record as ~ 30%. Moreover, the EC50 (as a rule, the concentration at which the effect is half-maximal) in data set [5] is greater than 219 µM.
As for `C=C(C)[C@@H]1CC[C@]2(C=O)CC[C@]3(C)[C@H](CC[C@@H]4[C@@]5(C)CC[C@H](O)C(C)(C)[C@@H]5CC[C@]43C)[C@@H]12` [Betulinic aldehyde], in [6], the EC50 is 28.4 µM.
In data set [7], `CC(=O)N[C@H]1[C@H]([C@H](O)[C@H](O)CO)OC(C(=O)O)=C[C@@H]1N=C(N)N` [Zanamivir, reference compound] showed a CC50 greater than 100 µM. In data set [8], the “SI (Selectivity Index, ratio of CC50 to IC50)” value is on record as greater than 79.4. Further, the IC50 in data set [8] (Influenza A virus, MDCK, 36 h) was determined as 1.26 ± 0.36 µM.
In the case of “Heptakis 6-Deoxy-6-[4-N-(3β-Hydroxy-lup-20(29)-en-28-oyl)-aminomethyl-1H-1,2,3-triazol-1-yl]-β-CD [Compound 70]”, the CC50 in data set [9] is greater than 100 µM. Moreover, the IC50 in data set [8] was 7.48 ± 1.93 µM.
Regarding “Heptakis 6-Deoxy-6-[4-N-[(2-(2-(2-Propyn-1-yloxy)ethoxy)ethyl)-3β-hydroxy-lup-20(29)-en-28-Oyl]-aminomethyl-1H-1,2,3-triazol-1-Yl]-2,3-di-O-acetyl-β-CD [Compound 58]”, the MDCK cell viability in [9] is listed as 68%.
“Heptakis 6-Deoxy-6-[4-N-[(3,6,9,12,15,18-Hexaoxaheneicos-20-yn-1-yl)-3β-hydroxy-lup-20(29)-en-28-oyl]-aminomethyl-1H-1,2,3-triazol-1-yl]-β-CD [Compound 82]” displayed an MDCK cell viability in data set [9] of 67%.
In the case of “Hexakis 6-Deoxy-6-[4-N-(3β-Hydroxy-lup-20(29)-en-28-oyl)-aminomethyl-1H-1,2,3-triazol-1-yl]-α-CD [Compound 69]”, the CC50 in data set [9] was greater than 100 µM. For the same molecule, the IC50 in data set [8] worked out at 9.82 ± 1.74 µM.
Consider “Hexakis 6-Deoxy-6-[4-N-[(2-(2-(2-Propyn-1-yloxy)ethoxy)ethyl)-3β-hydroxy-lup-20(29)-en-28-oyl]-aminomethyl-1H-1,2,3-triazol-1-yl]-2,3-di-O-acetyl-α-CD [Compound 57]”, for which the “inhibition rate against influenza virus A/WSN/33 (H1N1)” value (“inhibition rate” below) in [8] is recorded as “over 50%”.
As to “Hexakis 6-Deoxy-6-[4-N-[(2-(2-(2-Propyn-1-yloxy)ethoxy)ethyl)-3β-hydroxy-lup-20(29)-en-28-oyl]-aminomethyl-1H-1,2,3-triazol-1-yl]-α-CD [Compound 75]”, the IC50 in data set [8] (A/WSN/33 virus in MDCK cells, MOI 0.2, 36 h) turned out to be 15.6 ± 3.32 µM. Besides, the “inhibition rate” value in data set [8] is reported as “over 50%”.
With “Hexakis 6-Deoxy-6-[4-N-[(3,6,9,12-Tetraoxapentadec-14-yn-1-yl)-3β-hydroxy-lup-20(29)-en-28-oyl]-aminomethyl-1H-1,2,3-triazol-1-yl]-α-CD [Compound 78]”, the “inhibition rate” value in data set [8] is listed as “over 50%”.
On to “Octakis 6-Deoxy-6-[4-N-(3β-Hydroxy-lup-20(29)-en-28-oyl)-aminomethyl-1H-1,2,3-triazol-1-yl]-γ-CD [Compound 71]”, for which, in data set [9], the CC50 was greater than 100 µM. Moreover, the IC50 in data set [8] turned out to be 7.59 ± 1.57 µM.
“Octakis 6-Deoxy-6-[4-N-[(3,6,9,12-Tetraoxapentadec-14-yn-1-yl)-3β-hydroxy-lup-20(29)-en-28-oyl]-aminomethyl-1H-1,2,3-triazol-1-yl]-γ-CD [Compound 80]” displayed an MDCK cell viability in data set [9] of 64%.
